Results published in patent US20070093520A1, “Method of treatment of diarrhea-predominant irritable bowel syndrome in a subject” (priority 2005, published 2007).

System: diarrhea-predominant IBS subjects
Experiment: 3007 Study: open-label 52-week safety study, adverse events and withdrawals
Settings: P/C group

Cc1nccn1C[C@H]1CCc2c(c3cccc4c3n2CCC4)C1=O [cilansetron, (R)-(−)-4,5,6,8,9,10-hexahydro-10-[(2-methyl-1H-imidazol-1-yl)methyl]-11H-pyrido-[3,2,1-jk]-carbazol-11-one]
TEAE: Dyspnoea NOS: 1 (<1%) n (%)
TEAE: Dysuria: 0 n (%)
TEAE: Ear Disorders NEC: 1 (<1%) n (%)
TEAE: Ear Pain: 1 (<1%) n (%)
TEAE: Ear and Labyrinth Disorders: 4 (1%) n (%)
TEAE: Eczema: 1 (<1%) n (%)
TEAE: Elevated Cholesterol: 3 (1%) n (%)
TEAE: Endocrine Disorders: 2 (<1%) n (%)
TEAE: Endometriosis*: 0 n (%)
TEAE: Erythema: 0 n (%)
TEAE: Erythemas: 0 n (%)
TEAE: External Ear Disorders NEC: 0 n (%)
TEAE: Eye Disorders: 5 (2%) n (%)
TEAE: Fall: 2 (<1%) n (%)
TEAE: Fatigue: 6 (2%) n (%)
TEAE: Fatigue Aggravated: 0 n (%)
TEAE: Febrile Disorders: 1 (<1%) n (%)
TEAE: Fibroma NOS: 1 (<1%) n (%)
TEAE: Fluid Intake Increased: 1 (<1%) n (%)
TEAE: Fluid in Middle Ear: 0 n (%)
TEAE: Flushing: 0 n (%)
TEAE: Food Allergy: 1 (<1%) n (%)
TEAE: General Disorders and Administration Site Conditions: 19 (7%) n (%)
TEAE: General Signs and Symptoms NEC: 3 (1%) n (%)
TEAE: Gilbert's Syndrome: 1 (<1%) n (%)
TEAE: Glucose Tolerance Impaired: 1 (<1%) n (%)
TEAE: Glycosuria: 1 (<1%) n (%)
TEAE: Goitre: 0 n (%)
TEAE: Gout: 0 n (%)
TEAE: Haematoma NOS: 0 n (%)
TEAE: Haematuria: 0 n (%)
TEAE: Hallucination NOS: 1 (<1%) n (%)
TEAE: Hallucination, Auditory: 1 (<1%) n (%)
TEAE: Hand Fracture: 1 (<1%) n (%)
TEAE: Hearing Losses: 0 n (%)
TEAE: Hepatitis NOS: 0 n (%)
TEAE: Hepatobiliary Disorders: 1 (<1%) n (%)
TEAE: Hepatobiliary Signs and Symptoms: 0 n (%)
TEAE: Hepatocellular Damage and Hepatitis NEC: 0 n (%)
TEAE: Hepatosplenomegaly NOS: 0 n (%)
TEAE: Hernia NOS: 1 (<1%) n (%)
TEAE: Hernia Repair NOS: 0 n (%)
TEAE: Hernia Repairs: 0 n (%)
TEAE: Hernias NEC: 1 (<1%) n (%)
TEAE: Hot Flushes NOS: 0 n (%)
TEAE: Hypercholesterolaemia: 3 (1%) n (%)
TEAE: Hyperglycaemia NOS: 3 (1%) n (%)
TEAE: Hyperglycaemic Conditions NEC: 4 (1%) n (%)
TEAE: Hyperkeratoses: 1 (<1%) n (%)
TEAE: Hyperkeratosis: 1 (<1%) n (%)
TEAE: Hyperlipidaemia NOS: 0 n (%)
TEAE: Hyperlipidaemias NEC: 0 n (%)
TEAE: Hypersensitivity NOS: 1 (<1%) n (%)
TEAE: Hypertension Aggravated: 1 (<1%) n (%)
TEAE: Hypertension NOS: 6 (2%) n (%)
TEAE: Hypotension NOS: 1 (<1%) n (%)
TEAE: Immune System Disorders: 4 (1%) n (%)
TEAE: Inborn Errors of Bilirubin Metabolism: 1 (<1%) n (%)
TEAE: Influenza Like Illness: 1 (<1%) n (%)
TEAE: Ingrowing Nail: 1 (<1%) n (%)
TEAE: Inner Ear Disorders NEC: 0 n (%)
TEAE: Inner Ear Infections and Inflammations: 1 (<1%) n (%)
TEAE: Inner Ear Signs and Symptoms: 2 (<1%) n (%)
TEAE: Insomnia: 0 n (%)
TEAE: Insomnia Exacerbated: 0 n (%)
TEAE: Intermenstrual Bleeding*: 0 n (%)
TEAE: Irritability: 1 (<1%) n (%)
TEAE: Ischaemic Coronary Artery Disorders: 0 n (%)
TEAE: Labyrinthitis NOS: 1 (<1%) n (%)
TEAE: Lacrimal Disorders: 0 n (%)
TEAE: Lactose Intolerance: 1 (<1%) n (%)
TEAE: Laryngeal and Adjacent Sites Disorders NEC (Excl Infections and Neoplasms): 1 (<1%) n (%)
TEAE: Laryngitis NOS: 1 (<1%) n (%)
TEAE: Leiomyoma NOS: 0 n (%)
TEAE: Lethargy: 1 (<1%) n (%)
TEAE: Leukopenia NOS: 0 n (%)
TEAE: Leukopenias NEC: 0 n (%)
TEAE: Libido Decreased: 1 (<1%) n (%)
TEAE: Lid, Lash and Lacrimal Structural Disorders (Excl Congenital): 0 n (%)
TEAE: Lipid Metabolism Disorder NOS: 0 n (%)
TEAE: Lipid Metabolism and Deposit Disorders NEC: 0 n (%)
TEAE: Lipoma NOS: 0 n (%)
TEAE: Lower Respiratory Tract Signs and Symptoms: 1 (<1%) n (%)
TEAE: Lymphadenopathy: 1 (<1%) n (%)
TEAE: Lymphangitis and Lymphatic Disorders NEC: 1 (<1%) n (%)
TEAE: Meniere's Disease: 0 n (%)
TEAE: Menorrhagia*: 1 (<1%) n (%)
TEAE: Menstruation Irregular*: 1 (<1%) n (%)
TEAE: Menstruation and Uterine Bleeding NEC*: 1 (<1%) n (%)
TEAE: Menstruation with Decreased Bleeding*: 0 n (%)
TEAE: Menstruation with Increased Bleeding*: 1 (<1%) n (%)
TEAE: Mental Disorders NEC: 1 (<1%) n (%)
TEAE: Mental Status Changes: 1 (<1%) n (%)
TEAE: Metabolism and Nutrition Disorders: 10 (4%) n (%)
TEAE: Middle Ear Disorders NEC: 0 n (%)
TEAE: Motion Sickness: 1 (<1%) n (%)
TEAE: Myocardial Infarction: 0 n (%)
TEAE: Nail and Nail Bed Conditions (Excl Infections and Infestations): 1 (<1%) n (%)
TEAE: Nasal Congestion and Inflammations: 1 (<1%) n (%)
TEAE: Neoplasms Benign Site Unspecified NEC: 1 (<1%) n (%)
TEAE: Neoplasms Benign, Malignant and Unspecified (Incl Cysts and Polyps): 6 (2%) n (%)
TEAE: Normal Pregnancy, Labour and Delivery*: 0 n (%)
TEAE: Ocular Disorders NEC: 1 (<1%) n (%)
TEAE: Ocular Nerve and Muscle Disorders: 2 (<1%) n (%)
TEAE: Oedema NEC: 3 (1%) n (%)
TEAE: Oedema NOS: 1 (<1%) n (%)
TEAE: Oedema Peripheral: 2 (<1%) n (%)
TEAE: Ovarian Cancer NOS*: 0 n (%)
TEAE: Ovarian Cystadenofibroma*: 1 (<1%) n (%)
TEAE: Ovarian Neoplasms Benign*: 1 (<1%) n (%)
TEAE: Ovarian Neoplasms Malignant (Excl Germ Cell)*: 0 n (%)
TEAE: Pain NOS: 1 (<1%) n (%)
TEAE: Pain and Discomfort NEC: 7 (3%) n (%)
TEAE: Palpitations: 2 (<1%) n (%)
TEAE: Panic Attack: 1 (<1%) n (%)
TEAE: Panic Symptoms: 1 (<1%) n (%)
TEAE: Papulosquamous Conditions: 1 (<1%) n (%)
TEAE: Paranasal Sinus Disorders (Excl Infections and Neoplasms): 3 (1%) n (%)
TEAE: Paranasal Sinus Hypersecretion: 0 n (%)
TEAE: Partial Vision Loss: 1 (<1%) n (%)
TEAE: Pelvic Pain NOS: 2 (<1%) n (%)
TEAE: Penile Disorders NEC (Excl Erection and Ejaculation)*: 1 (1%) n (%)
TEAE: Penile Haemorrhage*: 1 (1%) n (%)
TEAE: Perception Disturbances: 1 (<1%) n (%)
TEAE: Peripheral Embolism NOS: 1 (<1%) n (%)
TEAE: Peripheral Embolism and Thrombosis: 1 (<1%) n (%)
TEAE: Peripheral Vascular Disorders NEC: 0 n (%)
TEAE: Pharyngitis: 3 (1%) n (%)
TEAE: Polydipsia: 1 (<1%) n (%)
TEAE: Polyuria: 1 (<1%) n (%)
TEAE: Posterior Capsule Opacification: 1 (<1%) n (%)
TEAE: Postnasal Drip: 1 (<1%) n (%)
TEAE: Pregnancy NOS*: 0 n (%)
TEAE: Pregnancy, Puerperium and Perinatal Conditions: 0 n (%)
TEAE: Premenopause*: 1 (<1%) n (%)
TEAE: Premenstrual Syndrome*: 0 n (%)
TEAE: Productive Cough: 0 n (%)
TEAE: Prostate and Seminal Vesicles Infections and Inflammations*: 1 (1%) n (%)
TEAE: Prostatitis*: 1 (1%) n (%)
TEAE: Proteinuria: 0 n (%)
TEAE: Pruritus NEC: 1 (<1%) n (%)
TEAE: Pruritus NOS: 1 (<1%) n (%)
TEAE: Psoriasis: 1 (<1%) n (%)
TEAE: Psychiatric Disorders: 17 (6%) n (%)
TEAE: Psychotic Disorder NEC: 1 (<1%) n (%)
TEAE: Psychotic Disorder NOS: 1 (<1%) n (%)
TEAE: Purine Metabolism Disorders NEC: 0 n (%)
TEAE: Pyrexia: 1 (<1%) n (%)
TEAE: Rash Macular: 2 (<1%) n (%)
TEAE: Rash NOS: 2 (<1%) n (%)
TEAE: Rashes, Eruptions and Exanthems NEC: 4 (1%) n (%)
TEAE: Rate and Rhythm Disorders NEC: 2 (<1%) n (%)
TEAE: Refractive Errors NOS: 0 n (%)
TEAE: Refractive and Accommodative Disorders: 0 n (%)
TEAE: Renal Lithiasis: 0 n (%)
TEAE: Renal and Urinary Disorders: 4 (1%) n (%)
TEAE: Reproductive System and Breast Disorders: 12 (4%) n (%)
TEAE: Reproductive Tract Signs and Symptoms NEC: 2 (<1%) n (%)
TEAE: Respiratory Tract Congestion: 1 (<1%) n (%)
TEAE: Respiratory Tract Disorders NEC: 1 (<1%) n (%)
TEAE: Respiratory, Thoracic and Mediastinal Disorders: 18 (6%) n (%)
TEAE: Retinal Detachment: 0 n (%)
TEAE: Retinal Structural Change, Deposit and Degeneration: 0 n (%)
TEAE: Rhinitis Allergic NOS: 1 (<1%) n (%)
TEAE: Rhinitis NOS: 0 n (%)
TEAE: Rhinitis Seasonal: 0 n (%)
TEAE: Rosacea: 0 n (%)
TEAE: Rosaceas: 0 n (%)
TEAE: Seasonal Allergy: 1 (<1%) n (%)
